Experimental data from patent US10413538B2, “Administration of karenitecin for the treatment of platinum and/or taxane chemotherapy-resistant or -refractory advanced ovarian cancer” (priority 2013, dated 2019).
Entries after “also recorded” stand apart in the source; their conditions may differ. Like-named read-outs stand apart in the source and are kept apart here.

Experiments:
[1] = system: resistant subline of cells containing less than 4% of the topoisomerase I activity; settings: subline with <4% topoisomerase I activity; cited from earlier work
[2] = system: panel of over twenty (20) human cancer cell lines; assay: In vitro studies on a panel of human cancer cell lines; type: cell-based
[3] = system: stage III/IV advanced epithelial ovarian cancer resistant or refractory to platinum- and taxane-based chemotherapy; assay: Phase III clinical study of Karenitecin versus Topotecan: efficacy (PFS, OS); type: in vivo, human
Procedure: The Primary Endpoint of the disclosed Phase III clinical study was Progression Free Survival (“PFS”); which was defined as the time period from the date of randomization to the date of first radiographically documented Progressive Disease (“PD”) or date of death due to any cause, taking either event date that occurred first. The date of PD was determined by radiographical objective disease (RECIST) measurement method. The Secondary Endpoints of the disclosed Phase III clinical study included: (i) Overall Survival (hereinafter “OS”), defined as the time from the date of randomization to the date of death due to any cause; (ii) Incidence of anemia, defined as the proportion of patients who experience ≥grade 3 anemia based on National Cancer Institute Common Terminology Criteria for Adverse Events (NCI-CTCAE) criteria at any time post-baseline after receiving study treatment; (iii) Incidence of neutropenia (including febrile neutropenia), defined as the proportion of patients who experience ≥grade 3 neutropenia based on NCI-CTCAE criteria at any time post-baseline after receiving study treatment; and (iv) Incidence of thrombocytopenia, defined as the proportion of patients who experience ≥grade 3 thrombocytopenia based on NCI-CTCAE criteria at any time post-baseline after receiving study treatment.
All patients admitted to this Phase III clinical trial were documented to be platinum- and/or taxane-resistant or refractory and have incurable disease. […] It is important to note that, currently, there is no FDA-approved chemotherapeutic drug for this specific aforementioned indication.
Approximately 80 study centers participated in this Phase III clinical study. The primary endpoint was Progression Free Survival (PFS), defined as the time period from the date of randomization to the date of first radiographically documented progressive disease or disease progression (“PD”) or date of death due to any cause, taking the event date that occurs first.
The primary endpoint was Progression Free Survival (PFS); defined as the time period from the date of randomization to the date of first radiographically documented progressive disease (PD) or date of death due to any cause, taking the event date that occurs first. The date of PD was determined by radiographically objective disease (RECIST) measurement. Secondary Endpoints: • Overall Survival (OS), defined as the time from the date of randomization to the date of death due to any cause. • Incidence of anemia, defined as the proportion of patients who experience ≥grade 3 anemia based on National Cancer Institute Common Terminology Criteria for Adverse Events (NCI-CTCAE) criteria at any time post-baseline after receiving study treatment. • Incidence of neutropenia (including febrile neutropenia), defined as the proportion of patients who experience ≥grade 3 neutropenia based on NCI-CTCAE criteria at any time post-baseline after receiving study treatment. • Incidence of thrombocytopenia, defined as the proportion of patients who experience ≥grade 3 thrombocytopenia based on NCI-CTCAE criteria at any time post-baseline after receiving study treatment.
Patients underwent procedures throughout four (4) defined periods in this study, which are briefly described below. Various clinical, laboratory, and disease evaluations were required for each of these for each periods.
Period I (Screening and Randomization): Patient eligibility was determined by compliance with protocol-specified inclusion and exclusion criteria. Patients who signed the informed consent, and successfully complete the screening process, including documentation of disease status by radiographic measures, were randomized to receive study treatment.
Period III (End of Treatment): Within ±3 days of date of treatment discontinuation, end-of treatment procedures will be conducted during Period III.

[4] = in vivo, iv
[5] = dog, in vivo, po
[6] = Lactone stability and lactone half-life in humans/plasma; type: in vivo, human
[7] = Preclinical toxicology, oral single daily doses for five consecutive days; settings: beagle dogs
[8] = Phase I clinical studies of intravenous Karenitecin (safety, dose-limiting toxicity); type: in vivo, human
Procedure: Results from three Phase I studies indicate that Karenitecin can be safely administered to patients at the dose level of 1.0 mg/m^2/day I.V. over a one hour period of time for 5 consecutive days in a 3-week treatment cycle. […] Any gastrointestinal toxicity is generally ≤grade 2 and is not dose-limiting.
Intravenous administration of Karenitecin has been evaluated in three Phase I clinical studies in patients with the following cancer types: (i) advanced solid tumors (adult patients) (see, e.g., Schilsky, R. L., Hausheer, F. H., et al., Phase I trial of Karenitecin administered intravenously daily for five consecutive days in patients with advanced solid tumors using accelerated dose titration [abstract]. ASCO Abstract 758 (2000)); (ii) refractory or recurrent solid tumors (pediatric patients); and (iii) recurrent malignant glioma (adult patients). […]

Topoisomerase I = target: T1, Topoisomerase I (Homo sapiens, UniProt P11387); assay: Topoisomerase I inhibition; type: biochemical
T1 sequence (P11387 1-765): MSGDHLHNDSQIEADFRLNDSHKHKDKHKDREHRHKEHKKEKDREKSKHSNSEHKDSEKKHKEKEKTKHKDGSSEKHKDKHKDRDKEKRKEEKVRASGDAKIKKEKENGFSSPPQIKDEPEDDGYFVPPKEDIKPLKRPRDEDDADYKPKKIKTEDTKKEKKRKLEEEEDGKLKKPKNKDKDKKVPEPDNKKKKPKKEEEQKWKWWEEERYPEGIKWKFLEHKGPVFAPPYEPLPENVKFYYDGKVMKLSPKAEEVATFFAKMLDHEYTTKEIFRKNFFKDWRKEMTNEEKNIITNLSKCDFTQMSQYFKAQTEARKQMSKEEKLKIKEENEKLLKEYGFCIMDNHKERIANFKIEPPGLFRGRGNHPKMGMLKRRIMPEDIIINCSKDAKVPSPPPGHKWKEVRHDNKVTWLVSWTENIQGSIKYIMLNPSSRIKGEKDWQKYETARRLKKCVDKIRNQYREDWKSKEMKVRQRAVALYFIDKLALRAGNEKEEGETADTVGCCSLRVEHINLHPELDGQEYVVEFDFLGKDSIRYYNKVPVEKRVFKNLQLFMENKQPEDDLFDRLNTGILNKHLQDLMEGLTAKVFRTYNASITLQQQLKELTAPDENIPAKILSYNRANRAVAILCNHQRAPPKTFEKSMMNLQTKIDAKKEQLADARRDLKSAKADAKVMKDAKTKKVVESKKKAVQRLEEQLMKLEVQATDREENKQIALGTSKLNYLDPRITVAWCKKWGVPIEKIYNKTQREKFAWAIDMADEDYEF

[9] = human, in vivo
Procedure: The primary endpoint was Progression Free Survival (PFS); defined as the time period from the date of randomization to the date of first radiographically documented progressive disease (PD) or date of death due to any cause, taking the event date that occurs first. The date of PD was determined by radiographically objective disease (RECIST) measurement. […]
Simultaneous statistical analyses were performed on the clinical trial data from the time points when 254 and 338 Progression Free Survival (PFS) events occurred during the aforementioned Karenitecin Phase III Trial and the following results were observed. […] The PFS benefit for Karenitecin in comparison to Topotecan was determined using an Independent Review Committee (IRC).

[10] = system: MDR/MRP, Breast Cancer Resistance Protein (BCRP)
advanced ovarian cancer = assay: Phase II study in advanced ovarian cancer patients who had failed prior treatments; type: in vivo, human
From the text: Intravenous administration of Karenitecin has been evaluated in three Phase I clinical studies in patients with the following cancer types: (i) advanced solid tumors (adult patients) (see, e.g., Schilsky, R. L., Hausheer, F. H., et al., Phase I trial of Karenitecin administered intravenously daily for five consecutive days in patients with advanced solid tumors using accelerated dose titration [abstract]. ASCO Abstract 758 (2000)); (ii) refractory or recurrent solid tumors (pediatric patients); and (iii) recurrent malignant glioma (adult patients). Intravenous administration of Karenitecin has also been evaluated in four Phase 2 clinical studies in adult patients with the following cancer types: (i) primary malignant glioma; (ii) treatment of persistent or recurrent epithelial ovarian or primary peritoneal carcinoma in heavily pre-treated patients; (iii) malignant melanoma (see, e.g., Hausheer, F. H., et al., Phase II trial of Karenitecin (BNP1350) in malignant melanoma: clinical and translational study [abstract]. ASCO Abstract 7554 (2004); and (iv) relapsed or refractory non-small cell lung cancer (see, e.g., Miller, A. A., et al., MR for the Cancer and Leukemia Group B. Phase II trial of Karenitecin in patients with relapsed or refractory advanced non-small cell lung cancer (CALGB 30004) Lung Cancer 48:399-407 (2005)).

[11] = system: MDR/MRP, Breast Cancer Resistance Protein (BCRP); settings: cited from earlier work
[12] = Glucuronidation / metabolism; type: in vitro ADME
MDR-expressing sublines = settings: P-glycoprotein-associated MDR phenotype; cited from earlier work
[13] = human, in vivo; cited from earlier work

Q: For `CC[C@@]1(O)C(=O)OCc2c1cc1n(c2=O)Cc2cc3ccccc3nc2-1` [camptothecin], which “decrease in sensitivity of resistant subline versus wild-type parental cells” value [1] is on record?
A: 1000 fold

Q: Which “concentrations for inhibiting the growth of human and animal tumor cells in vitro” value [2] does the source give for `CC[C@@]1(O)C(=O)OCc2c1cc1n(c2=O)Cc2c-1nc1ccccc1c2CC[Si](C)(C)C` [Karenitecin, (4S)-4-ethyl-4-hydroxy-11-[2-(trimethylsilyl)ethyl]-1H-pyrano[3′:4′:6,7]indolizino[1,2-b]quinoline-3,14(4H,12H)-dione] here?
A: nanomolar or sub-nanomolar concentrations

Q: And the “antitumor potency compared with Topotecan or SN-38” value ([2]; over twenty human cancer cell lines)?
A: significantly more potent antitumor agent than either Topotecan or SN-38

Q: And the “overall survival hazard ratio, Karenitecin vs Topotecan” value (from here on “overall survival hazard ratio”) ([3]; Adenocarcinoma (grade ≥2) not otherwise specified, P-value 0.7893)?
A: 0.898

Q: And the “PFS HR, Karenitecin vs Topotecan” value ([3]; Adenocarcinoma (grade ≥2) not otherwise specified, P-value=0.3700)?
A: 0.684

Q: And the “PFS HR, Karenitecin vs Topotecan” value ([3]; Best response SD after 6 cycles in a first-line setting, P-value=0.9908)?
A: 0.992

Q: What about the “PFS HR, Karenitecin vs Topotecan” value ([3]; ECOG Performance Status 0, P-value=0.0249) of the same compound?
A: 0.662

Q: And the “PFS HR, Karenitecin vs Topotecan” value ([3]; ECOG Performance Status 2, P-value=0.7481)?
A: 0.896

Q: What about the “PFS HR, Karenitecin vs Topotecan” value ([3]; FIGO Stage 111B, P-value=0.6225) of the same compound?
A: 0.722

Q: And the “overall survival hazard ratio” value ([3]; FIGO Stage IV, P-value 0.4516)?
A: 0.892

Q: What about the “PFS HR, Karenitecin vs Topotecan” value ([3]; FIGO Stage IV, all events, P-value=0.0556) of the same compound?
A: 0.741

Q: What about the “PFS HR, Karenitecin vs Topotecan” value ([3]; FIGO Stage IV, first 254 PFS events, P-value=0.0260) of the same compound?
A: 0.669

Q: And the “overall survival hazard ratio” value ([3]; Histological Stage: G1-well differentiated, P-value 0.974)?
A: 0.9612

Q: What about the “PFS HR, Karenitecin vs Topotecan” value ([3]; Histological Stage: G1-well differentiated, P-value=0.8561) of the same compound?
A: 0.904

Q: And the “PFS HR, Karenitecin vs Topotecan” value ([3]; Histological Stage: G2-moderately differentiated, P-value=0.2982)?
A: 0.835

Q: What about the “overall survival hazard ratio” value ([3]; Histopathology Class: Undifferentiated carcinoma, P-value 0.701) of the same compound?
A: 0.6426

Q: What about the “median PFS advantage in favor of Karenitecin” value ([3]; Histopathology class: Mucinous adenocarcinoma subtype) of the same compound?
A: 2 month

Q: What about the “overall survival hazard ratio” value ([3]; Histopathology class: Mucinous adenocarcinoma, P-value 0.7321) of the same compound?
A: 0.841

Q: And the “PFS HR, Karenitecin vs Topotecan” value ([3]; Histopathology class: serous adenocarcinoma, P-value=0.2829)?
A: 0.873

Q: And the “PFS HR, Karenitecin vs Topotecan” value ([3]; Ovary as primary site of disease, P-value=0.2606)?
A: 0.885

Q: And the “median progression-free survival (PFS) advantage in favor of Karenitecin (as compared with Topotecan)” value ([3]; overall trial population, IRC)?
A: greater than 6 week

Q: What about the “PFS Hazard Ratio (HR), Karenitecin vs Topotecan” value ([3]; overall trial population, P-value=0.261) of the same compound?
A: 0.885

Q: And the “PFS HR, Karenitecin vs Topotecan” value ([3]; resistant subject sub-population, P-value=0.144)?
A: 0.822

Q: What about the “PFS HR, Karenitecin vs Topotecan” value ([3]; subpopulation refractory or resistant and/or mucinous, first 254 PFS events, P-value=0.0849) of the same compound?
A: 0.770

Q: And the toxicities observed [4]?
A: reversible myelosuppression (predominantly neutropenia), diarrhea, emesis and mucositis (canine)

Q: And the toxicities observed [5]?
A: anorexia; weight loss; gastrointestinal toxicity (manifested as diarrhea with hemorrhage); occasional vomiting; and myelosuppression

Q: What about the “half-life in active lactone form in plasma compared with other commercially-available camptothecins” value [6] of the same compound?
A: longer half-life in its active lactone form in plasma

Q: What about the “oral MTD relative to intravenous (I.V.) MTD” value [7] of the same compound?
A: approximately 2 times

Q: What about the “principal and dose-limiting toxicity” value ([8]; Phase I, 1.0 mg/m^2/day I.V. over one hour, 5 consecutive days, 3-week cycle) of the same compound?
A: non-cumulative, reversible myelosuppression; also recorded: reversible and non-cumulative neutropenia and thrombocytopenia

Q: What about the “serious hypersensitivity reactions reported by patients” value ([8]; patients receiving Karenitecin to date) of the same compound?
A: no serious hypersensitivity reactions

Q: And the “Topoisomerase I inhibition” value (Topoisomerase I)?
A: potent inhibitor of Topoisomerase I

Q: And the “Grade 3 or 4 anemia events reduced in comparison to the Topotecan arm” value ([9]; female, 5 days)?
A: 27.3%

Q: What about the “Grade 3 or 4 thrombocytopenia events reduced in comparison to the Topotecan arm” value ([9]; female, 5 days) of the same compound?
A: 37.4%

Q: What about the “grade 4 neutropenia reduced in comparison to the Topotecan arm” value ([9]; female, 5 days) of the same compound?
A: 38.2%

Q: What about the “safety concerns as monitored by the independent Data and Safety Monitoring Board (DSMB)” value [9] of the same compound?
A: no safety concerns related to Karenitecin were noted

Q: What about the “susceptibility to MDR/MRP drug resistance” value [10] of the same compound?
A: lacks susceptibility to MDR/MRP drug resistance

Q: And the “Time to Progression (TTP) compared with historical results reported with Topotecan” value (advanced ovarian cancer)?
A: prolonged Time to Progression (TTP)

Q: And the “sensitivity to tumor-mediated drug resistance mechanisms including BCRP” value [11]?
A: insensitive to all commonly-known tumor-mediated drug resistance mechanisms

Q: And the “A-ring or B-ring glucuronidation” value [12]?
A: does not undergo A-ring or B-ring glucuronidation

Q: Which “resistance of MDR-expressing sublines relative to parental wild-type cells” value (MDR-expressing sublines) does the source give for `COc1cccc2c1C(=O)c1c(O)c3c(c(O)c1C2=O)C[C@@](O)(C(=O)CO)C[C@@H]3O[C@H]1C[C@H](N)[C@H](O)[C@H](C)O1` [doxorubicin] here?
A: 200 fold

Q: Which “resistance of MDR-expressing sublines relative to parental wild-type cells” value (MDR-expressing sublines) does the source give for `COc1cc([C@@H]2c3cc4c(cc3[C@@H](O[C@@H]3O[C@@H]5CO[C@@H](C)O[C@H]5[C@H](O)[C@H]3O)[C@H]3COC(=O)[C@H]23)OCO4)cc(OC)c1O` [etoposide] here?
A: 200 fold

Q: With `Nc1ccn([C@@H]2O[C@H](CO)[C@@H](O)C2(F)F)c(=O)n1` [Gemcitabine] as the compound, how does the patients with neutropenia [13] read?
A: up to 90%
